These results are taken from PMC12518634, “The noncanonical function of liver-type phosphofructokinase potentiates the efficacy of HDAC inhibitors in cancer” (Signal Transduction and Targeted Therapy, 2025).

SMILES strings stand for the structures. pEC50: −log10 of the molar value. Counter-ions that a name gives are not always drawn. Like-named read-outs stand apart in the source and are kept apart here.

Broadly, the pEC50 is the EC50 on a negative log10 scale, so that one unit is a factor of ten.

One test relates to 1405R3. Put plainly: High-throughput drug screen, CellTiter-Glo viability, 72 h. It counts as cell-based, human. As to conditions: 1405R3 DSRT analysis; for AUC: area under the dose-response curve; for DSS: drug sensitivity score; for MIN: lower asymptote of fitted dose-response curve; for SLOPE: slope of fitted dose-response curve; for pEC50: CellTiter-Glo viability, 72 h, fitted dose-response curve, Min.Conc.tested 1, Max.Conc.tested 10000, GI50, read-out: EC50. The arrangement: AUC: scale not given here. In outline: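 Responses are drug sensitivity scores (efficacy cutoff ≥10), fitted from CellTiter-Glo luminescence. Each drug was given at five concentrations (10 to 0.001 μM, tenfold steps) in duplicate for 72 h. Cells were plated at 3000/well 24 h before dosing.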

A further test relates to 783C-6. The test is described as above. The test is classed as cell-based, human. The arrangement: AUC: scale not given here. As to conditions: for DSS: DSS of DSRT analysis; for AUC: area under the dose-response curve; for MIN: minimum of dose-response curve; for SLOPE: slope of fitted dose-response curve; for pEC50: 72 h, read-out: EC50. A digest of the protocol: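 Cholangiocarcinoma cells were seeded at 3000/well in 384-well plates and dosed after 24 h. Drugs were tested at 10, 1, 0.1, 0.01 and 0.001 μM in duplicate for 72 h, with viability read by CellTiter-Glo luminescence.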

Consider `N[C@H]1CC[C@H](N[C@@H]2C[C@H]2c2ccccc2)CC1` [ORY-1001], for which, in the test with 1405R3, the AUC is recorded as 0.1, the DSS is on record as 0 and the MIN came out at 100. Moreover, in the test on 783C-6 (783C-6 cells), the DSS came out at 0, the AUC worked out at 14.3 and the MIN is listed as 92.7.
For the compound `O=C(Nc1ccc(O)c(C(=O)O)c1)c1cccc(NC(=O)c2ccco2)c1` [OSS_128167], in the test with 1405R3, the AUC worked out at 8.4, the DSS was 0, the MIN worked out at 94.6 and the SLOPE was -0.1. Further, in the test on 783C-6 (783C-6 cells), the DSS amounted to 0, the AUC amounted to 7.3, the MIN turned out to be 92.5 and the SLOPE is reported as -0.3.
As for `Cc1sc2c(c1C)C(c1ccc(Cl)cc1)=N[C@@H](CC(=O)Nc1ccc(O)cc1)c1nnc(C)n1-2` [OTX015], in the test with 1405R3, the AUC is given as 90.2, the DSS was 10.4 and the MIN was found to be 24.3. Also, the pEC50 in the test with 1405R3 (Homo sapiens) was 6.19. In addition, in the test on 783C-6 (783C-6 cells), the DSS is on record as 0, the AUC amounted to 6.1 and the MIN is recorded as 90.3.
Regarding `O=C(O)C(=O)O.[NH-][C@@H]1CCCC[C@H]1[NH-].[Pt+2]` [Oxaliplatin], in the test on 1405R3, the AUC was 20.5, the DSS is reported as 1.7, the MIN was 78.3 and the SLOPE was -2.2. In addition, the pEC50 in the test on 783C-6 (783C-6 cells, DSRT analysis, CellTiter-Glo viability, concentrations tested 1 to 10000 (unit inferred), GI50) was 6.18. For the same compound, in the test with 783C-6 (783C-6 cells), the DSS is 3.8, the AUC amounted to 41.2, the MIN is on record as 65.7 and the SLOPE is -1.1.
`COc1ccc(Cn2ccc3ccc(C(=O)NO)cc32)cc1` [PCI-34051]: in the test with 1405R3, the AUC is on record as 0.1, the DSS is given as 0, the MIN worked out at 100 and the SLOPE is recorded as -0.1. Further, in the test with 783C-6 (783C-6 cells), the DSS came to 0, the AUC is listed as 2, the MIN was 95.4 and the SLOPE is recorded as -0.7.
Consider `COc1ccccc1S(=O)(=O)Nc1ccc2c(c1)CN(C)C(=O)N2` [PFI-1], for which, in the test with 1405R3, the pEC50 is 5.87, the AUC is recorded as 38.8, the DSS stood at 4.4 and the MIN worked out at 55.4. For the same compound, in the test on 1405R3, the SLOPE was -2.5. Moreover, in the test with 783C-6 (783C-6 cells), the DSS turned out to be 0, the AUC is recorded as 7.2, the MIN was found to be 94.7 and the SLOPE is -2.5.
As for `O=C([C@@H](Cc1cccc(C(F)(F)F)c1)NS(=O)(=O)c1cc(F)c2c(c1)CCNC2)N1CCCC1` [PFI-2 HCl], in the test on 1405R3, the AUC was determined as 15.4, the DSS is 0 and the MIN came to 84.5. For the same compound, in the test with 783C-6 (783C-6 cells), the DSS came to 0, the AUC is reported as 2.2 and the MIN stood at 95.2.
`O=C(NNc1ccccn1)c1ccccn1` [PFI-90]: in the test with 1405R3, the AUC is recorded as 8.1, the DSS is reported as 0, the MIN was 93.5 and the SLOPE is -0.2. Also, in the test on 783C-6 (783C-6 cells), the DSS turned out to be 0, the AUC was found to be 10.9, the MIN came to 92.2 and the SLOPE was -2.5.
`CC(=O)O[C@H]1C(=O)[C@@]2(C)[C@H]([C@H](OC(=O)c3ccccc3)[C@]3(O)C[C@H](OC(=O)[C@H](O)[C@@H](NC(=O)c4ccccc4)c4ccccc4)C(C)=C1C3(C)C)[C@]1(OC(C)=O)CO[C@@H]1C[C@@H]2O` [Paclitaxel]: in the test on 1405R3, the AUC is 129.3, the DSS was found to be 14.6 and the MIN stood at 37.8. The pEC50 in the test on 1405R3 (Homo sapiens) is 7.09. In the test with 783C-6 (783C-6 cells), the DSS is listed as 21.1, the AUC was 167.6 and the MIN is listed as 52.1. The pEC50 with 783C-6 (Homo sapiens) is 8.72.
With `CCN1C(=O)N(c2c(F)c(OC)cc(OC)c2F)Cc2cnc3[nH]c(CN4CCOCC4)cc3c21` [Pemigatinib], in the test on 1405R3, the AUC was 7, the DSS was found to be 0 and the MIN came to 76.8. In the test on 783C-6 (783C-6 cells), the DSS turned out to be 4.8, the AUC came to 62.9 and the MIN stood at 78.8.
